Key:
Schistosoma mansoni [1] = experiment: Antischistosomal activity against Schistosoma mansoni at 50 uM measured after 120 hrs relative to control; format: functional
Schistosoma mansoni [2] = experiment: Antischistosomal activity against Schistosoma mansoni BH infected in Swiss Webster mouse assessed as worm burden reduction at 100 mg/kg, po administered for 5 consecutive days and measured 15 days post-treatment (reference value: 19.8%); format: functional; parameters: scale not given: the % may be the effect or the level left; settings: time 15 day
Schistosoma mansoni [3] = experiment: Antischistosomal activity against Schistosoma mansoni LE assessed as worm mortality at 100 ug/ml measured after 72 hrs by inverted microscopic method relative to control; format: functional
Schistosoma mansoni [4] = experiment: Antischistosomal activity against Schistosoma mansoni LE assessed as worm mortality at 100 ug/ml measured after 144 hrs by inverted microscopic method relative to control; format: functional; settings: dose 100 µg/ml
Schistosoma mansoni [5] = experiment: Schistosomicidal-activity against Schistosoma mansoni Puerto-Rican schistosomula incubated for 7 days by trypan blue dye-exclusion test; format: functional, organism-based; settings: 168 h
Schistosoma mansoni [6] = experiment: Antischistosomal activity against Schistosoma mansoni Puerto-Rican infected in BALB/c mouse assessed as worm burden reduction at 300 mg/kg, po BID administered for 2 consecutive days by light microscopic method relative to control; format: functional; parameters: scale not given: the % may be the effect or the level left
Schistosoma mansoni [7] = experiment: Antischistosomal activity against female Schistosoma mansoni LE incubated for 24 hrs by MTT assay; format: functional
CHO-K1 = experiment: Cytotoxicity against CHO-K1 cells incubated for 24 hrs by colorimetric assay; format: functional, cell-based; settings: Cricetulus griseus, CHO-K1, 24 h
Schistosoma mansoni [8] = experiment: Antischistosomal activity against male Schistosoma mansoni LE incubated for 24 hrs by MTT assay; format: functional
Schistosoma mansoni [9] = experiment: Antischistosomal activity against female Schistosoma mansoni Egyptian strain infected in BALB/c mouse assessed as reduction in worm burden at 200 mg/kg, po measured after 2 weeks; format: functional; parameters: scale not given: the % may be the effect or the level left
Schistosoma mansoni [10] = experiment: Antischistosomal activity against Schistosoma mansoni LE infected in BALB/c mouse assessed as reduction in worm burden at 10 mg/kg, ip administered for 5 consecutive days starting from day 23 by microscopic method relative to control; format: functional; parameters: scale not given: the % may be the effect or the level left
Schistosoma mansoni [11] = experiment: Antischistosomal activity against female Schistosoma mansoni Egyptian strain infected in BALB/c mouse assessed as reduction in total worm burden at 300 mg/kg, po measured after 2 weeks by scanning electron microscopy relative to control; format: functional; parameters: scale not given: the % may be the effect or the level left
Schistosoma mansoni [12] = experiment: Antischistosomal activity against Schistosoma mansoni LE infected in BALB/c mouse assessed as reduction in worm burden at 10 mg/kg, ip administered for 5 consecutive days starting from day 1 post infection by microscopic method relative to control; format: functional; parameters: scale not given: the % may be the effect or the level left
Schistosoma mansoni [13] = experiment: Antischistosomal activity against female Schistosoma mansoni Egyptian strain infected in BALB/c mouse assessed as reduction in total worm burden at 200 mg/kg, po measured after 2 weeks by scanning electron microscopy; format: functional; parameters: scale not given: the % may be the effect or the level left
Schistosoma mansoni [14] = experiment: Antischistosomal activity against female Schistosoma mansoni Egyptian strain infected in BALB/c mouse assessed as reduction in male worm burden at 300 mg/kg, po measured after 2 weeks by scanning electron microscopy relative to control; format: functional; parameters: scale not given: the % may be the effect or the level left
Schistosoma mansoni [15] = experiment: Antischistosomal activity against female Schistosoma mansoni Egyptian strain infected in BALB/c mouse assessed as reduction in female worm burden at 300 mg/kg, po measured after 2 weeks by scanning electron microscopy relative to control; format: functional; parameters: scale not given: the % may be the effect or the level left
Schistosoma mansoni [16] = experiment: Antischistosomal activity against adult Schistosoma mansoni LE assessed as worm mortality at 100 ug/ml incubated for 24 hrs by inverted microscopic method relative to control; format: functional
Schistosoma mansoni [17] = experiment: Antischistosomal activity against adult Schistosoma mansoni LE assessed as reduction in worm vitality measured every 24 hrs by inverted microscopy; format: functional, organism-based
Schistosoma mansoni [18] = experiment: Antischistosomal activity against Schistosoma mansoni LE schistosomula assessed as reduction in worm vitality measured every 24 hrs by inverted microscopy; format: functional, organism-based
Schistosoma japonicum = experiment: Antischistosomal activity against Schistosoma japonicum at 10 uM incubated for 72 hrs by inverted microscopic method relative to control; format: functional
L6 = experiment: Cytotoxicity against rat L6 cells measured after 72 hrs by alamar blue assay; format: functional, cell-based; settings: L6, 72 h
Schistosoma mansoni [19] = experiment: Antischistosomal activity against Schistosoma mansoni infected in NMRI mouse assessed as worm burden reduction at 100 mg/kg, po administered as single dose relative to control; format: functional; parameters: scale not given: the % may be the effect or the level left
Schistosoma haematobium [20] = experiment: Antischistosomal activity against adult Schistosoma haematobium assessed as reduction in worm viability at 100 uM measured after 48 hrs by microscopic method relative to control; format: functional
Schistosoma mansoni [21] = experiment: Antischistosomal activity against adult Schistosoma mansoni measured after 72 hrs by microscopic method; format: functional, organism-based
Schistosoma haematobium [22] = experiment: Antischistosomal activity against adult Schistosoma haematobium assessed as reduction in worm viability at 100 uM measured after 4 hrs by microscopic method relative to control; format: functional
Schistosoma mansoni [23] = experiment: Antischistosomal activity against adult Schistosoma mansoni assessed as worm mortality at 10 uM measured up to 72 hrs by microscopic method relative to control; format: functional; settings: time hrs <=72
Schistosoma mansoni [24] = experiment: Antischistosomal activity against Schistosoma mansoni infected in NMRI mouse assessed as reduction in total worm burden at 400 mg/kg, po measured after 21 days relative to control; format: functional; parameters: scale not given: the % may be the effect or the level left; settings: time 21 day
Schistosoma mansoni [25] = experiment: Antischistosomal activity against adult Schistosoma mansoni measured up to 72 hrs by microscopic method; format: functional, organism-based
Schistosoma mansoni [26] = experiment: Antischistosomal activity against Schistosoma mansoni infected in NMRI mouse assessed as reduction in female worm burden at 400 mg/kg, po measured after 21 days relative to control; format: functional; parameters: scale not given: the % may be the effect or the level left; settings: time 21 day
Schistosoma mansoni [27] = experiment: Antischistosomal activity against Schistosoma mansoni NTS assessed as worm mortality at 10 uM measured up to 72 hrs by microscopic method relative to control; format: functional; settings: time hrs <=72
Schistosoma mansoni [28] = experiment: Antischistosomal activity against Schistosoma mansoni at 50 uM measured after 96 hrs relative to control; format: functional
Schistosoma mansoni [29] = experiment: Schistosomicidal-activity against adult Schistosoma mansoni incubated overnight followed by replacement of medium and measured on day 5 by stereomicroscopy; format: functional, organism-based; settings: 120 h

Question: What does the source list for `CN(Nc1ccc(Cl)cc1)C1NC(=O)N(Cc2ccccc2)C1=S` (stereo not drawn)?
Answer: Activity (Schistosoma mansoni [1]): 100%; Activity (Schistosoma mansoni [2]): 70.5%

Question: How did the mortality at 100 µg/mL (Schistosoma mansoni [3]) turn out when `COc1ccc(-c2cs/c(=N/N=C/CN3C(=O)c4ccccc4C3=O)[nH]2)cc1` was run?
Answer: 60%

Question: And the Activity (Schistosoma mansoni [4])?
Answer: 100%

Question: Which EC50 (Schistosoma mansoni [5]) does the source give for `C1CCCCCC2(CCCCC1)OOCCCOO2` here?
Answer: 0.016 µM

Question: And the Activity (Schistosoma mansoni [6])?
Answer: 63%

Question: With `C=CC(C)(C)c1cc(/C=C/C(=O)c2ccc(O)cc2)c(OC)cc1O` [LICOAGROCHACONE A] as the compound, how does the LC50 (Schistosoma mansoni [7]) read?
Answer: 9.12 µM

Question: What about the IC50 (CHO-K1) of the same compound?
Answer: 508 µM

Question: And the LC50 (Schistosoma mansoni [8])?
Answer: 9.52 µM

Question: Which Activity (Schistosoma mansoni [9]) does the source give for `CC(C)Oc1ccc(-c2ccc(-c3nc4ccccc4[nH]3)s2)cc1` here?
Answer: 66%

Question: And the Activity (Schistosoma mansoni [10])?
Answer: 55.3%

Question: And the Activity (Schistosoma mansoni [11])?
Answer: 55.3%

Question: What about the Activity (Schistosoma mansoni [12]) of the same compound?
Answer: 34.6%

Question: And the Activity (Schistosoma mansoni [13])?
Answer: 44%

Question: And the Activity (Schistosoma mansoni [14])?
Answer: 34.6%

Question: What about the Activity (Schistosoma mansoni [15]) of the same compound?
Answer: 76.5%

Question: `Cc1ccc(-c2cs/c(=N/N=C/CN3C(=O)c4ccccc4C3=O)[nH]2)cc1` was tested. Which mortality at 100 µg/mL (Schistosoma mansoni [16]) did it give?
Answer: 100%

Question: What about the EC50 (Schistosoma mansoni [17]) of the same compound?
Answer: 38.7 µM

Question: And the EC50 (Schistosoma mansoni [18])?
Answer: 9.77 µM

Question: How did the Activity (Schistosoma japonicum) turn out when `CCCCCCCCCCOc1cc2c(O)c(C(=O)NCCN(CC)CC)cnc2cc1OCC` was run?
Answer: 100%

Question: What does the source list for `CC(C)N(Cc1ccccc1)CC1CCc2cc(CCl)c([N+](=O)[O-])cc2N1` (stereo not drawn)?
Answer: IC50 (L6): > 73 µM; Activity (Schistosoma mansoni [19]): 76.1%; Activity (Schistosoma haematobium [20]): 100%; IC50 (Schistosoma mansoni [21]): 11.1 µM; Activity (Schistosoma haematobium [22]): 75%

Question: For `CCNCCNc1cc(-c2ccc(Cl)cc2)c(C#N)c2nc3ccccc3n12`, which mortality at 10 µM (Schistosoma mansoni [23]) is on record?
Answer: > 60%

Question: And the Activity (Schistosoma mansoni [24])?
Answer: 58.7%

Question: What about the IC50 (Schistosoma mansoni [25]) of the same compound?
Answer: 2.44 µM

Question: And the Activity (Schistosoma mansoni [26])?
Answer: 61.3%

Question: What about the mortality at 10 µM (Schistosoma mansoni [27]) of the same compound?
Answer: > 70%

Question: With `CN(c1ccc(F)cc1)N(C)C1NC(=O)N(Cc2ccc(Cl)cc2)C1=S` (stereo not drawn) as the compound, how does the Activity (Schistosoma mansoni [1]) read?
Answer: 100%

Question: What about the Activity (Schistosoma mansoni [28]) of the same compound?
Answer: 100%

Question: `O=C(C1CCCCC1)N1CC(=O)N2CCc3sccc3C2C1` (stereo not drawn) was tested. Which EC50 (Schistosoma mansoni [29]) did it give?
Answer: 0.9 µM

From ChEMBL document CHEMBL4811216, “Chemotherapy for human schistosomiasis: how far have we come? What's new? Where do we go from here?” (RSC Med Chem, 2020)
